Source: patent US20240368191A1, “HETEROCYCLIC COMPOUNDS AND USES THEREOF” (Kumquat Biosciences Inc., priority 2021, published 2024)

Tests used:
[1] = in vitro; conditions: microsomes, pH 7.4
Procedure: (§1) The metabolic stability of a test compound is assayed at 37° C. using pooled liver microsomes (mouse or human liver microsomes). An aliquot of 10 μL of 50 μM test compound is mixed with 490 μL of 0.611 mg/mL liver microsomes, then 50 μL of the mixtures are dispensed to the 96 well tubes and warmed at 37° C. for 10 minutes. The reactions are initiated by adding 50 μL of the pre-warmed NADPH regeneration system solution (add 1.2 μL solution, 240 μl solution B, mix with 10.56 ml KPBS) and then incubated at 37° C. The final incubation solution contains 100 mM potassium phosphate (pH 7.4), 1.3 mM NADP+, 3.3 mM glucose 6-phosphate, 0.4 Unit/mL of glucose 6-phosphate dehydrogenase, 3.3 mM magnesium chloride, 0.3 mg/mL liver microsomes and 0.5 μM test article. After 0, 15, 30 and 60 minutes in a shaking incubator, the reactions are terminated by adding 100 μL of acetonitrile containing 200 nM buspirone as an internal standard. All incubations are conducted in duplicate. […] Samples are then centrifuged at 3500 rpm for 10 minutes (4° C.) using Sorvall Legend XRT Centrifuge (Thermo Scientific, GE). Supernatants (40 μL) are transferred into clean 96-deep well plates. Each well is added with 160 μL of ultrapure water (Milli-Q, Millipore Corporation) with 0.1% (v/v) formic acid (Fisher Chemical), mixed thoroughly and subjected to LC/MS/MS analysis in MRM positive ionization mode.
(§2) All the samples are measured using a mass spectrometer (QTrap 5500 quadrupole/ion trap) coupled with a Shimadzu HPLC system. The HPLC system consisted of a Shimadzu series degasser, binary quaternary gradient pumps, column heater coupled to an autosampler, and a Phenomenex Gemini-NX, C18, 3.0 μm or Phenomenex Lunar, C8, 5.0 μM HPLC column (Phenomenex, Torrance, CA), and eluted with a mobile phase gradient consisting of Solution A (0.1% formic acid water) and Solution B (0.1% formic acid acetonitrile). The column temperature is maintained at 40° C. All the analytes are detected with positive-mode electrospray ionization (ES+).
(§3) The half-life for the metabolic degradation of the test compound is calculated by plotting the time-course disappearance of the test compound during the incubation with liver microsomes. Each plot is fitted to a first-order equation for the elimination of the test compound (% remaining compound) versus time using non-linear regression (Equation 1).
(§4) where Ct is the mean relative substrate concentration at time t and C0 is the initial concentration (0.5 μM) at time 0. Note that the area ratio of the substrate peak to an internal standard peak is proportional to the analyte concentration and is used for regression analysis to derive a value of k.

[2] = Metabolic (microsomal) stability assay; conditions: pooled liver microsomes, pH 7.4
Procedure: as §1, §2, §3, §4

[3] = target: T1, KRAS G12D 1-169 (His-tagged, GDP-loaded) (Homo sapiens, UniProt P01116, G12D); test: Covalent modification of KRAS protein by intact-protein LC-MS; type: binding; conditions: comparable or same conditions as K-Ras G12S
T1 construct: His -tagged GDP-loaded G12D 1-169; made in house; host or cells: E. coli, e.g. BL21 (DE3)
Method in brief: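 Percent modification is derived from deconvoluted intact-protein LC-ESI-MS peak intensities of adducted versus unmodified KRAS. GDP-loaded His-tagged KRAS 1-169 (~2 μM, HEPES buffer at physiological conditions) was exposed to compound for 24 hrs at room temperature, then quenched with formic acid before C4 reversed-phase separation.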

T1 sequence (P01116 1-169 isoform P01116-2 G12D): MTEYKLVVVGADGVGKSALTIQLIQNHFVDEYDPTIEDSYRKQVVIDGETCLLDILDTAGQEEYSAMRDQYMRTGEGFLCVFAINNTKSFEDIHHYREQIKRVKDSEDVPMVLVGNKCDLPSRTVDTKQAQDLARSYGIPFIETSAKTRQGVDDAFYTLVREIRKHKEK

SMILES	half-life at 0.5 μM [1] [min]	half-life at 0.5 μM [2] [min]	covalent labeling of K-Ras G12D [3]
N#Cc1c(N)sc2c(F)ccc(-c3c(Cl)cc4c(N5CC6CCC(C5)N6C(=O)Nc5ncccn5)nc(OC[C@@]56CCCN5C[C@H](F)C6)nc4c3F)c12 [Compound A215, 3-(7-(2-amino-3-cyano-7-fluorobenzo[b]thiophen-4-yl)-6-chloro-8-fluoro-2-(((2R,7aS)-2-fluorotetrahydro-1H-pyrrolizin-7a(5H)-yl)methoxy)quinazolin-4-yl)-N-(pyrimidin-2-yl)-3,8-diazabicyclo[3.2.1]octane-8-carboxamide]	> 10		
N#Cc1cnn(C(=O)N2C3CCC2CN(c2nc(OC[C@@]45CCCN4C[C@H](F)C5)nc4c(F)c(-c5ccc(F)c6sc(N)nc56)c(Cl)cc24)C3)c1 [Compound A253, 1-(3-(7-(2-amino-7-fluorobenzo-[d]thiazol-4-yl)-6-chloro-8-fluoro-2-(((2R,7aS)-2-fluoro-tetrahydro-1H-pyrrolizin-7a(5H)-yl)methoxy)quinazolin-4-yl)-3,8-diazabicyclo[3.2.1]-octane-8-carbonyl)-1H-pyrazole-4-carbonitrile]	> 10		
C#Cc1c(F)ccc2cc(O)cc(-c3ncc4c(N5CC6CCC(C5)N6C(=O)n5cncn5)nc(OC[C@@]56CCCN5C[C@H](F)C6)nc4c3F)c12 [Compound A234, (3-(7-(8-ethynyl-7-fluoro-3-hydroxynaphthalen-1-yl)-8-fluoro-2-(((2R,7aS)-2-fluoro-tetrahydro-1H-pyrrolizin-7a(5H)-yl)methoxy)pyrido[4,3-d]pyrimidin-4-yl)-3,8-diaza-bicyclo[3.2.1]octan-8-yl)(1H-1,2,4-triazol-1-yl)methanone]	> 10		
N#Cc1c(N)sc2c(F)ccc(-c3c(Cl)cc4c(N5CC6CCC(C5)N6C(=O)n5cncn5)nc(OC[C@@]56CCCN5C[C@H](F)C6)nc4c3F)c12 [Compound A260, 4-(4-(8-(1H-1,2,4-triazole-1-carbonyl)-3,8-diazabicyclo-[3.2.1]octan-3-yl)-6-chloro-8-fluoro-2-(((2R,7aS)-2-fluoro-tetrahydro-1H-pyrrolizin-7a(5H)-yl)methoxy)quinazolin-7-yl)-2-amino-7-fluorobenzo-[b]thiophene-3-carbonitrile]	> 10		
C#Cc1c(F)ccc2cc(O)cc(-c3ccc4c(N5CC6CCC(C5)N6C(=O)n5cncn5)nc(OC[C@@]56CCCN5C[C@H](F)C6)nc4c3F)c12 [Compound A281, (3-(7-(8-ethynyl-7-fluoro-3-hydroxynaphthalen-1-yl)-8-fluoro-2-(((2R,7aS)-2-fluoro-tetrahydro-1H-pyrrolizin-7a(5H)-yl)methoxy)quinazolin-4-yl)-3,8-diazabicyclo[3.2.1]-octan-8-yl)(1H-1,2,4-triazol-1-yl)methanone]	> 10		
C#Cc1c(F)ccc2cc(O)cc(-c3ncc4c(N5CC6CCC(C5)N6C(=O)n5cc(C#N)cn5)nc(OC[C@@]56CCCN5C[C@H](F)C6)nc4c3F)c12 [Compound A143, 1-(3-(7-(8-ethynyl-7-fluoro-3-hydroxynaphthalen-1-yl)-8-fluoro-2-(((2R,7aS)-2-fluoro-tetrahydro-1H-pyrrolizin-7a(5H)-yl)methoxy)pyrido[4,3-d]pyrimidin-4-yl)-3,8-diaza-bicyclo[3.2.1]octane-8-carbon-yl)-1H-pyrazole-4-carbonitrile]	> 10		
N#Cc1c(N)sc2c(F)ccc(-c3c(Cl)cc4c(N5CC6CCC(C5)N6C(=O)n5ccnc5C#N)nc(OC[C@@]56CCCN5C[C@H](F)C6)nc4c3F)c12 [Compound A220, 1-(3-(7-(2-amino-3-cyano-7-fluorobenzo[b]thiophen-4-yl)-6-chloro-8-fluoro-2-(((2R,7aS)-2-fluorotetrahydro-1H-pyrrol-izin-7a(5H)-yl)methoxy)quin-azolin-4-yl)-3,8-diazabicyclo-[3.2.1]octane-8-carbonyl)-1H-imidazole-2-carbonitrile]	> 10		
C#Cc1c(F)ccc2cc(O)cc(-c3ncc4c(N5CC6CCC(C5)N6C(=O)n5ccnc5)nc(OC[C@@]56CCCN5C[C@H](F)C6)nc4c3F)c12 [Compound A163, (3-(7-(8-ethynyl-7-fluoro-3-hydroxynaphthalen-1-yl)-8-fluoro-2-(((2R,7aS)-2-fluoro-tetrahydro-1H-pyrrolizin-7a(5H)-yl)methoxy)pyrido[4,3-d]pyrimidin-4-yl)-3,8-diaza-bicyclo[3.2.1]octan-8-yl)(1H-imidazol-1-yl)methanone]	> 10		
N#Cc1ccn(C(=O)N2C3CCC2CN(c2nc(OC[C@@]45CCCN4C[C@H](F)C5)nc4c(F)c(-c5ccc(F)c6sc(N)c(C#N)c56)c(Cl)cc24)C3)n1 [Compound A224, 1-(3-(7-(2-amino-3-cyano-7-fluorobenzo[b]thiophen-4-yl)-6-chloro-8-fluoro-2-(((2R,7aS)-2-fluorotetrahydro-1H-pyrrolizin-7a(5H)-yl)methoxy)quinazolin-4-yl)-3,8-diazabicyclo[3.2.1]-octane-8-carbonyl)-1H-pyrazole-3-carbonitrile]	> 10		
C#Cc1c(F)ccc2cc(O)cc(-c3ncc4c(N5C6COCC5CN(C(=O)n5cc(C#N)cn5)C6)nc(OC[C@@]56CCCN5C[C@H](F)C6)nc4c3F)c12 [Compound A226, 1-(9-(7-(8-ethynyl-7-fluoro-3-hydroxynaphthalen-1-yl)-8-fluoro-2-(((2R,7aS)-2-fluoro-tetrahydro-1H-pyrrolizin-7a(5H)-yl)methoxy)pyrido[4,3-d]pyrimidin-4-yl)-3-oxa-7,9-diazabicyclo[3.3.1]nonane-7-carbonyl)-1H-pyrazole-4-carbo-nitrile]	> 10		
N#Cc1c(N)sc2c(F)ccc(-c3ncc4c(N5CC6CCC(C5)N6C(=O)n5cncn5)nc(OC[C@@]56CCCN5C[C@H](F)C6)nc4c3F)c12 [Compound A206, 4-(4-(8-(1H-1,2,4-triazole-1-carbonyl)-3,8-diazabicyclo-[3.2.1]octan-3-yl)-8-fluoro-2-(((2R,7aS)-2-fluorotetrahydro-1H-pyrrolizin-7a(5H)-yl)meth-oxy)pyrido[4,3-d]pyrimidin-7-yl)-2-amino-7-fluorobenzo[b]-thiophene-3-carbonitrile]	> 10		
C#Cc1c(F)ccc2cc(O)cc(-c3ncc4c(N5CC6CCC(C5)N6C(=O)Nc5ncccn5)nc(OC[C@@]56CCCN5C[C@H](F)C6)nc4c3F)c12 [Compound A131, 3-(7-(8-ethynyl-7-fluoro-3-hydroxynaphthalen-1-yl)-8-fluoro-2-(((2R,7aS)-2-fluoro-tetrahydro-1H-pyrrolizin-7a(5H)-yl)methoxy)pyrido[4,3-d]pyrimidin-4-yl)-N-(pyrimidin-2-yl)-3,8-diazabicyclo[3.2.1]-octane-8-carboxamide]	> 10		
N#Cc1c(N)sc2c(F)ccc(-c3c(Cl)cc4c(N5CC6CCC(C5)N6C(=O)n5ccnc5)nc(OC[C@@]56CCCN5C[C@H](F)C6)nc4c3F)c12 [Compound A105, 4-(4-(8-(1H-imidazole-1-carbonyl)-3,8-diazabicyclo-[3.2.1]octan-3-yl)-6-chloro-8-fluoro-2-(((2R,7aS)-2-fluoro-tetrahydro-1H-pyrrolizin-7a(5H)-yl)methoxy)quinazolin-7-yl)-2-amino-7-fluorobenzo-[b]thiophene-3-carbonitrile]	> 10		
Cc1ncn(C(=O)N2CC3(CCCN(c4nc(OC[C@@]56CCCN5C[C@H](F)C6)nc5c(F)c(-c6ccc(F)c7sc(N)c(C#N)c67)c(Cl)cc45)C3)C2)n1 [Compound A102, 2-amino-4-(6-chloro-8-fluoro-2-(((2R,7aS)-2-fluorotetrahydro-1H-pyrrolizin-7a(5H)-yl)meth-oxy)-4-(2-(3-methyl-1H-1,2,4-triazole-1-carbonyl)-2,6-diaza-spiro[3.5]nonan-6-yl)quinazo-lin-7-yl)-7-fluorobenzo[b]-thiophene-3-carbonitrile]		> 10	essentially no detectable labeling
Nc1nc2c(-c3c(Cl)cc4c(N5CC6CCC(C5)N6C(=O)n5cncn5)nc(OC[C@@]56CCCN5C[C@H](F)C6)nc4c3F)ccc(F)c2s1 [Compound A111, (3-(7-(2-amino-7-fluorobenzo-[d]thiazol-4-yl)-6-chloro-8-fluoro-2-(((2R,7aS)-2-fluoro-tetrahydro-1H-pyrrolizin-7a(5H)-yl)methoxy)quinazolin-4-yl)-3,8-diazabicyclo[3.2.1]-octan-8-yl)(1H-1,2,4-triazol-1-yl)methanone]	> 10		
N#Cc1c(N)sc2c(F)ccc(-c3c(Cl)cc4c(N5CC6CCC(C5)N6C(=O)n5cc(C(F)(F)F)cn5)nc(OC[C@@]56CCCN5C[C@H](F)C6)nc4c3F)c12 [Compound A122, 2-amino-4-(6-chloro-8-fluoro-2-(((2R,7aS)-2-fluorotetrahydro-1H-pyrrolizin-7a(5H)-yl)meth-oxy)-4-(8-(4-(trifluoromethyl)-1H-pyrazole-1-carbonyl)-3,8-diazabicyclo[3.2.1]octan-3-yl)-quinazolin-7-yl)-7-fluorobenzo-[b]thiophene-3-carbonitrile]	> 10		
N#Cc1cnn(C(=O)N2CC3COCC(C2)N3c2nc(OC[C@@]34CCCN3C[C@H](F)C4)nc3c(F)c(-c4ccc(F)c5sc(N)c(C#N)c45)c(Cl)cc23)c1 [Compound A249, 1-(9-(7-(2-amino-3-cyano-7-fluorobenzo[b]thiophen-4-yl)-6-chloro-8-fluoro-2-(((2R,7aS)-2-fluorotetrahydro-1H-pyrrolizin-7a(5H)-yl)methoxy)quinazolin-4-yl)-3-oxa-7,9-diazabicyclo-[3.3.1]nonane-7-carbonyl)-1H-pyrazole-4-carbonitrile]	> 10		
